Here are results for 1 substance from patent US20070129436A1, “Agent for Suppressing Body Fat Accumulation” (YAMAHA HATSUDOKI KABUSHIKI KAISHA, priority 2005, published 2007).

Data set [1] concerns Human umbilical vein endothelial cells (HUVECs). Kind of data set: Measurement of 50% lethal concentration for HUVEC (alamarBlue). In kind it is cell-based. As to the method: Human umbilical vein endothelial cells (HUVECs) (ATCC CRL-1730) were obtained from American Type Culture Collection and precultivated in an Endothelial Cell Growth Medium (CELL APPLICATIONS, USA) containing 10% bovine fetal serum supplemented with 1% Antibiotic-Antimycotic (GIBCO BRL, USA) under a 5% CO2 atmosphere at 37° C.
A Matrigel matrix (BD Biosciences, USA) was melted and kept at 4° C. on ice, and then, 50 μL of the matrix were transferred to each well of a 96-well tissue culture plate. The plate was incubated at 37° C. for at least one hour to solidify the matrix solution.
On the other hand, the astaxanthin monoester obtained in Preparation Example 1 was dissolved in dimethylsulfoxide (DMSO), and then diluted with distilled water to prepare stock test solutions in which the astaxanthin monoester was contained in 40 (v/v) % DMSO at 25000, 2500, 250, 25, and 2.5 μM, respectively. […]
After the incubation, 20 μL of a 90% alamarBlue reagent were added to individual wells, and incubated for an additional 6 hours. Then, the fluorescence intensity of each well was measured at an excitation wavelength of 530 nm and an emission wavelength of 590 nm using a Spectrafluor Plus plate reader to count the number of living cells. […] The 50% lethal concentration was calculated as the concentration at which the number of living cells was 50% of the number of cells at the start of the experiment.
On the technique in general: Alamar Blue is a resazurin reagent that responds to reducing activity.

For data set [2], the system named is obese model mice fed with a high-fat diet. Nature of the data set: Effect of astaxanthin monoester on obese model mice fed with a high-fat diet. Format: in vivo, male C57BL/6J strain mice. The procedure:
Astaxanthin was administered to obese model mice fed with a high-fat diet, and the change in body weight, the amount of subcutaneous fat (in the inguinal region and the back), the amount of visceral fat (around the reproductive organs and around the kidney), and the liver weight were examined in the following manner.
Four week old male C57BL/6J strain mice (SPF) purchased from CHARLES RIVER LABORATORIES JAPAN, INC. were used. The mice were preliminarily fed for 8 days and used for the test after they reached the age of 5 weeks. The mice were divided into three groups of 8 each, that is, a normal diet group, a high-fat diet group, and a high-fat diet+astaxanthin (AX) group, so that the average body weight was equal among the groups.
During the preliminary feeding period, the mice were given an ordinary powder diet (MF, Oriental Yeast Co., Ltd.), and during the test period of 16 weeks, the mice were given the ordinary powder diet or a high-fat diet having the composition shown in Table 1 below. As to drinking water, the mice were allowed to drink freely sterile distilled water from a water supply bottle.
The astaxanthin monoester prepared in Preparation Example 1 was dissolved in an olive oil (Wako Pure Chemical Industries, Ltd.) to prepare a solution containing astaxanthin monoester at a concentration of 60 mg/mL. This solution was administered to the high-fat diet+AX group and the olive oil to the other two groups in a volume of 0.05 mL/10 g body weight every day for 16 weeks from the start of the test (at the age of 5 weeks) to the age of 21 weeks, using a probe for oral administration in the mice.
During the test period, the body weight was measured once a week using a scale. At the end of the test, the body weight was measured, and thereafter, the mice were fasted overnight and sacrificed by collecting blood from the heart. Then, the liver, the adipose tissue in the inguinal region, the adipose tissue around the reproductive organs, the adipose tissue around the kidney, and the adipose tissue in the back were collected and the weights thereof were measured.
The different types of data obtained were expressed as average values±standard errors for each group. In order to test for statistically significant differences between the high-fat diet group and the high-fat diet+AX group or the normal diet group, a multiple comparison test (ANOVA) was performed using an analysis software (Stat View, Abacus Inc., USA), and a comparison between the groups was performed using Fisher's PLSD multiple comparison test. Differences were considered statistically significant when p<0.05.

[3] abbreviates: high-fat diet+AX vs high-fat diet group, oral daily for 16 weeks, end of test, FIG. 2.
Setting [4] is: high-fat diet+AX vs high-fat diet group, oral daily for 16 weeks, end of test, FIG. 3.

For orientation: LC50 means the concentration that kills 50% of the test population.

In the case of astaxanthin monoester, in data set [1] (72 hours incubation, 250 μM = maximum concentration dissolved in DMSO), the LC50 was at least 250 µM. Besides, the toxicity result in data set [1] (conclusion from the LC50 for HUVECs) is “low”. Further, the “increase in body weight” value in data set [2] (high-fat diet+AX group vs high-fat diet group, oral, 60 mg/mL in olive oil, 0.05 mL/10 g body weight every day for 16 weeks, FIG. 1) is on record as “tended to be distinctly suppressed”. For the same substance, in data set [2] (setting [3]), the “amount of fat accumulation in subcutaneous fat (weight)” value is reported as “significantly suppressed” and the “amount of fat accumulation in visceral fat (weight)” value is “significantly suppressed”. Also, in data set [2] (setting [4]), the “proportion of the liver weight to body weight” value was “approached that in the case of the normal diet” and the “proportions of all of the adipose tissues to body weight (increase)” value is “significantly suppressed”.
